Test results reported in patent US10273279B2, “Protease activated receptor-1 (PAR1) derived cytoprotective polypeptides and related methods” (THE SCRIPPS RESEARCH INSTITUTE, priority 2011, dated 2019).
Numbering of substitutions follows the chain as printed. Entries after “also recorded” stand apart in the source; their conditions may differ. Each block holds one substance with its values, some of them ahead of it.

How the values were obtained:
SEAP-PAR1 [1] = target: T1, SEAP-PAR1 (Homo sapiens, UniProt P25116, R41A); experiment: SEAP-PAR1 cleavage reporter on transfected HEK-293 cells (SEAP release); format: cell-based; details: in the absence of EPCR
T1 construct: we created a full-length PAR-1 construct linked at the N-terminus to an alkaline phosphatase reporter group (SEAP); expressed in transfected cells
T1 sequence (P25116 22-425 R41A): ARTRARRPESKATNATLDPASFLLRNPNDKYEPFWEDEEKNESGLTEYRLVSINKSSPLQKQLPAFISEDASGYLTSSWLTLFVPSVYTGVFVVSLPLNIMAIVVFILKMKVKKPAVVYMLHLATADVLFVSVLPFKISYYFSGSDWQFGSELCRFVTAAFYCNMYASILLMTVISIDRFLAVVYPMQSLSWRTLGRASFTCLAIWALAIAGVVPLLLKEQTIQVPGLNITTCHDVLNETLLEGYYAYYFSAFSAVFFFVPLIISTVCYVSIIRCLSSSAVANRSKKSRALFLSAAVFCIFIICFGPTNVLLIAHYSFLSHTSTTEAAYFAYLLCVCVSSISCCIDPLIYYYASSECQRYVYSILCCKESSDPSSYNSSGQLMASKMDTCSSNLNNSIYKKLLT
Description: (§1) To facilitate analysis of APC-mediated PAR-1 activation, we created a full-length PAR-1 construct linked at the N-terminus to an alkaline phosphatase reporter group (SEAP). Selection of stable cell lines expressing both endothelial protein C receptor (EPCR) (wt or E86A) and SEAP-PAR1 allowed for a reliable and reproducible analysis of EPCR-dependent PAR-1 activation by APC. Mass-spec analysis of cleavage fragments generated by APC of a synthetic PAR-1 N-terminal tail peptide (TR33-62) identified both Arg^41 and Arg^46 as potential cleavage sites for APC proteolysis, as noted above. […] R41Q-SEAP-PAR1 was cleaved by APC in the presence of EPCR. This surprising result was also obtained for R41A-SEAP PAR1.
(§2) 2009; 113:5970-5978. SEAP-PAR1, either in the presence or absence of wt-EPCR, were transfected into HEK-293 cells to obtain stable cells expressing SEAP-PAR1 or wt-EPCR/SEAP-PAR1. Mutations in SEAP-PAR1 were introduced using the Quickchange method (Agilent). Cells were grown in 96-wells plates to confluency in Dulbeco's modified Eagle media (DMEM): Ham's F-12 (Invitrogen) supplemented with penicillin-streptomycin-glutamine (PSG) (Gibco) and 10% fetal bovine serum (Omega) in a humidified atmosphere at 37° C. and 5% CO2 Cells were washed with Hank's balanced salt solution (HBSS; Invitrogen) supplemented with 1.3 mM CaCl2, 0.6 mM MgCl2 and 0.1% endotoxin free BSA (Calbiochem) and incubated with APC. After 60 min, SEAP release was determined using 1-step PNPP (Pierce). Values were corrected for background activity derived from the same cells incubated in the absence of APC and expressed as a percentage of total SEAP available on the cell membrane.

SEAP-PAR1 [2] = target: T2, SEAP-PAR1 (Homo sapiens, UniProt P25116, R41Q/R46Q); experiment: as above; format: cell-based; details: cells with wt-EPCR
T2 construct: we created a full-length PAR-1 construct linked at the N-terminus to an alkaline phosphatase reporter group (SEAP); expressed in transfected cells
T2 sequence (P25116 22-425 R41Q/R46Q): T1 sequence (P25116 22-425 R41A) with A20Q, R25Q
Description: as §1, §2

SEAP-PAR1 [3] = experiment: as above; format: cell-based, human; details: in the absence of EPCR
Description: as §1, §2

[4] = test system: Rac1 in endothelial EA.hy.926 cells; experiment: Rac1 activation (GST-PAK1 pull down of active GTP-Rac1); format: cell-based, human; details: peptides 50 μM, 30 or 180 min
Experimental: Some assays employed in this study were performed as follow. Rac1 activation. The pGEXTK-PAK1 70-117 construct encoding a GST fusion to p21-activated kinase (PAK-1)-binding domain (PBD) was kindly made available by Dr. J Chernoff (Addgene plasmid 12217). GST-PAK1 was purified from transformed BL21 (DE3) Escherichia coli using B-Per lysis buffer (Pierce) with lysozyme, DNAse 1 and Halt EDTA-free protease inhibitor cocktail (Pierce) on Glutathione-agarose according to the manufacturer's recommendation. Pull down of active Rac1 was performed as described in Pellegrin et al., Curr. Protoc. Cell Biol. 2008; Chapter 14:Unit 14.8. Briefly, endothelial EA.hy.926 cells (5*10^6 per plate) were grown in 100-mm dishes for 48 hr and serum starved overnight before addition of peptides (50 μM) for 30 or 180 min. Lysates (2 mg) were mixed with GST-PAK1 Glutathione-agarose (150 μg) and after washing active GTP-Rac1 was eluted from GST-PAK1 Glutathione-agarose by boiling in reducing SDS sample buffer (LI-COR). Active GTP-Rac1 was resolved on 12% SDS PAGE, transferred to Immobilon-FL PVDF membrane, and immunoblotted with a mouse anti-Rac1 antibody (BD Bioscience) and IRDye 800CW donkey anti-mouse secondary antibodies (LI-COR). Immunoblots were scanned on the Odyssey Imager (LI-COR). Quantification of integrated fluorescence intensity (K counts) was done using Odyssey Application Software v3.0 (LI-COR).

SEAP-PAR1 [5] = target: T3, SEAP-PAR1 (Homo sapiens, UniProt P25116, R41Q); experiment: SEAP-PAR1 cleavage reporter on transfected HEK-293 cells (SEAP release); format: cell-based; details: in the presence of EPCR
T3 construct: we created a full-length PAR-1 construct linked at the N-terminus to an alkaline phosphatase reporter group (SEAP); expressed in transfected cells
T3 sequence (P25116 22-425 R41Q): T1 sequence (P25116 22-425 R41A) with A20Q
Description: as §1, §2

cleavage of R41A-SEAP-PAR1 (SEAP-PAR1 [1]): did not cleave
Substance: APC: Activated Protein C, serine protease with anticoagulant and cytoprotective cell signaling activities
cleavage of R41Q/R46Q-SEAP-PAR1 (SEAP-PAR1 [2]): eliminated PAR-1 cleavage; also recorded: negligible
cleavage of wt-SEAP-PAR1 and R46Q-SEAP-PAR1 (SEAP-PAR1 [3]): did cleave

Substance: NPNDKYEPFWEDEEKNESGL (listed as Homo sapiens) [TR47-66]
activation of Rac1 [4]: induced APC-like activation of Rac1

cleavage of R41Q-SEAP-PAR1 (SEAP-PAR1 [5]): did not show any cleavage
Substance: thrombin
